# Reference: patent US20080221214A1, “Process for the preparation of "Urchym" a urease and alpha-chymotrypsin enzyme inhibitory drug” (priority 2006, published 2008)
# Legend:
# α-chymotrypsin = target: T1, α-chymotrypsin (Bos taurus, UniProt P00766); assay: α-Chymotrypsin assay and inhibition; type: biochemical; conditions: substrate N-succinyl-phenylalanine-p-nitroanilide, pH 7.6, 37° C., 30 min pre-incubation; read-out: IC50 value, α-chymotrypsin inhibitory activity
# T1 construct: purchased Sigma-Aldrich
# Procedure: For the determination of α-chymotrypsin inhibitory activity the literature protocol was followed. In brief α-chymotrypsin (9 units/mL in 50 mM Tris-HCl buffer, pH 7.6; Sigma-Aldrich) was pre-incubated with the compound (3.02×10^−5 g/100 μL) for 30 min at 37° C. and then 100 μL of substrate solution (N-succinyl-phenylalanine-p-nitroanilide; 1 mg/mL) in 50 mM Tris-HCl buffer, pH 7.6) was added to start the enzyme reaction. The absorbance of released p-nitroaniline was continuously monitored at 410 nm until a significant color change had achieved. All reactions were performed in triplicate. Percent inhibitions were calculated using the formula 100-(ODtest well/ODcontrol×100).
# Jack bean urease = target: T2, Jack bean urease (Canavalia ensiformis, UniProt P07374); assay: biochemical
# T2 construct: purchased Sigma-Aldrich
# T2 sequence (P07374 whole entry, looked up): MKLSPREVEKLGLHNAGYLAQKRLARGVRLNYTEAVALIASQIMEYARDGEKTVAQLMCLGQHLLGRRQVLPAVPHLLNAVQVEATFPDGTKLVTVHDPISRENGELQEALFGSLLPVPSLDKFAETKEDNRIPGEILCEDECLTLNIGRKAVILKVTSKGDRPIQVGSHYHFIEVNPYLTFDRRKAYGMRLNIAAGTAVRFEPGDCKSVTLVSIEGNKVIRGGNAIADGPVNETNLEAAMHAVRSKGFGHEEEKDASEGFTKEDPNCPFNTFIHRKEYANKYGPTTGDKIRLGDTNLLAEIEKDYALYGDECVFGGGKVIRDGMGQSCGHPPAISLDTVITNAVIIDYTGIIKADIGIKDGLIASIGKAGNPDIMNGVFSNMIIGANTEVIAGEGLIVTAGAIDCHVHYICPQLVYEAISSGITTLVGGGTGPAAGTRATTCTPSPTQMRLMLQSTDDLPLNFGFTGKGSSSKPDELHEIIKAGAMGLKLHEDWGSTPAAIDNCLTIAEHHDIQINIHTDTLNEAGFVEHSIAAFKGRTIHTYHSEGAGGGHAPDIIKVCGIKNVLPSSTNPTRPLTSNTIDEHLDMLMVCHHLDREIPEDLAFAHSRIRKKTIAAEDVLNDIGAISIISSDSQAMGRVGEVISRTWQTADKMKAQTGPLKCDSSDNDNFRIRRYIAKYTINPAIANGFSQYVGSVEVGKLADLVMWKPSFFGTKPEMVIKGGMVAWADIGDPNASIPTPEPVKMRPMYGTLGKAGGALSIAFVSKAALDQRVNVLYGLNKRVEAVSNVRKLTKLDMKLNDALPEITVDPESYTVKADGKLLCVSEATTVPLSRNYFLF
# Procedure: Reaction mixtures comprising a 25 μL solution of enzyme (Jack bean urease, Sigma-Aldrich, specific activity 15 EU/mg) and 55 μL of buffer (0.01 M K2HPO43H2O, 1 MM EDTA 0.01 M LiCl; pH 8.2) containing 100 mM urea were incubated with 5 μL of the test compounds (0.01 μM-1 mM, dissolved in DMSO) at 30° C. for 15 min in 96-well plates. Urease activity was determined by measuring ammonia production using the indophenol method, 45 μL, of phenol reagent (1% w/v phenol and 0.005% w/v sodium nitroprusside) and 70 μL of alkali reagent (0.5% w/v NaOH and 0.1% w/v NaOCI) were added to each well (the final reaction volume was 200 μL). The increasing absorbance at 630 nm was measured after 50 min using a microplate reader (Molecular Device). All reactions were performed in triplicate. The results (change in absorbance per min) were processed using SoftMax Pro software (Molecular Device). Percent inhibitions were calculated using the formula 100−(ODtest well/ODcontrol×100).
compound,measurement,setting,value
"O=C(Nc1ccc([N+](=O)[O-])cc1)Nc1ccc([N+](=O)[O-])cc1 [Urchym, N-4-nitrophenyl-N′-4′-nitrophenylurea]",IC50,α-chymotrypsin,3150 ± 140 nM
same,IC50,Jack bean urease,1250 nM
